Experimental data reported in ChEMBL document CHEMBL1201862, “PubChem BioAssay data set” (2004).
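Tested at 5 concentrations; 48 h exposure; 96-well plates; endpoints linearly interpolated, else capped at highest concentration. GI50: concentration for 50% inhibition of growth.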 The source made the active and inactive calls. Cut-off read from the data, not from the text of the source: active = GI50 up to about 1.1 µM and inactive = higher.

Experiments:
Assay in all cases: inhibition of tumour cell growth, NCI panel, 48 h
A498 = tested on: A498
CAKI-1 = tested on: CAKI-1
CCRF-CEM = tested on: CCRF-CEM
COLO 205 = tested on: COLO 205
HCC 2998 = tested on: HCC 2998
LOX IMVI = tested on: LOX IMVI
LXFL 529 = tested on: LXFL 529
MDA-MB-231 = tested on: MDA-MB-231
Malme-3M = tested on: Malme-3M
OVCAR-5 = tested on: OVCAR-5
RXF 393 = tested on: RXF 393
SK-OV-3 = tested on: SK-OV-3
SNB-75 = tested on: SNB-75
SR = tested on: SR
T47D = tested on: T47D
UACC-257 = tested on: UACC-257
UACC-62 = tested on: UACC-62

Measured: GI50

CC1CC(C)CC(C)C(O)/C(C#N)=C/C=C/CC(C2CCCC2C(=O)O)OC(=O)CC(O)C(C)C1 (configuration not stated)
active: A498 10.5 nM | CAKI-1 < 10 nM | CCRF-CEM 11.8 nM | COLO 205 22.5 nM | HCC 2998 15.1 nM | LOX IMVI < 10.9 nM | LXFL 529 < 10 nM | MDA-MB-231 < 10.9 nM | Malme-3M 28.6 nM | OVCAR-5 < 10 nM | RXF 393 < 10 nM | SK-OV-3 16.1 nM | SNB-75 17.5 nM | SR < 11.6 nM | T47D < 10 nM | UACC-257 15.4 nM | UACC-62 10.1 nM
